The values below come from US11739098B2 (BRISTOL-MYERS SQUIBB COMPANY, priority 2017, dated 2023).

SMILES strings stand for the structures. A value given as a limit tells only on which side of the number the result lay.

Format in all cases: cell-based
Experiment [1] has as its target T1, human TLR7 (Homo sapiens, UniProt Q9NYK1).
T1 construct: host or cells: HEK-Blue cells (HEK293-derived reporter line)
T1 sequence (Q9NYK1 27-1049): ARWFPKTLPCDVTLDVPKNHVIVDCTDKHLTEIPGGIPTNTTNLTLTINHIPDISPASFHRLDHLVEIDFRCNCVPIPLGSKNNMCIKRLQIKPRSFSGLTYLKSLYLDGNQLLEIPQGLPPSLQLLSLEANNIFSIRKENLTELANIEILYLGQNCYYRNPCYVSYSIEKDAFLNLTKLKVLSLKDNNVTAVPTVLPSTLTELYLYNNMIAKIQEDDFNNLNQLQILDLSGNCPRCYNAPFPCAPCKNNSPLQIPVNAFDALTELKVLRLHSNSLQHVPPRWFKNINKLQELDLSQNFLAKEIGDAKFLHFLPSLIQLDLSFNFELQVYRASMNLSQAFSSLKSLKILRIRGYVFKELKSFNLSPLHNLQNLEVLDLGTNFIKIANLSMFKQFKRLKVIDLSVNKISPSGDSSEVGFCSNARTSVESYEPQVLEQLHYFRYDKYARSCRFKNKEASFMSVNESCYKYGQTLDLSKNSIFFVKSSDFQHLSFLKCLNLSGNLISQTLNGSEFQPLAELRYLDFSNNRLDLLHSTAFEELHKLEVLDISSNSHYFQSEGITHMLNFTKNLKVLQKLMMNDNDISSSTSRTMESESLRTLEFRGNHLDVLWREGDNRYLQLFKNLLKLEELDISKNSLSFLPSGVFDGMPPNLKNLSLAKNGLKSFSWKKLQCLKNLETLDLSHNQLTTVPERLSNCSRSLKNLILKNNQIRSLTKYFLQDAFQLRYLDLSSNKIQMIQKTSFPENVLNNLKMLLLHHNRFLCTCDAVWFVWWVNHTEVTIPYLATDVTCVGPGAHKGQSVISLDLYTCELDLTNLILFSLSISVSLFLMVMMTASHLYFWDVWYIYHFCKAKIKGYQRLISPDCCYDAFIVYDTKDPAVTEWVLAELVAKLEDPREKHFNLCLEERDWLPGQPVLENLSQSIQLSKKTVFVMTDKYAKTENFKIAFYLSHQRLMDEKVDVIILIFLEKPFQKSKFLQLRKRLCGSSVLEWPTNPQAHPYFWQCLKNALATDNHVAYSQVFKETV
The experiment is described as follows: TLR7 inhibition reporter assay (HEK-Blue cells, SEAP reporter, gardiquimod stimulation). The settings on record: HEK-Blue cells overexpressing human TLR7, SEAP reporter, gardiquimod 7.5 μM. An outline of the steps:
(§1)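 Percent inhibition of agonist-induced SEAP secretion in HEK-Blue cells after 22 h at 37 °C. Stimuli: 7.5 μM gardiquimod, 15.9 μM R848, 5 nM ODN2006 for TLR7, TLR8 and TLR9, added after 30 min compound exposure over a 0.05 nM–50 μM range.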

In experiment [2] the target is T2, human TLR8 (Homo sapiens, UniProt Q9NR97).
T2 construct: host or cells: HEK-Blue cells (HEK293-derived reporter line)
T2 sequence (Q9NR97 27-1041): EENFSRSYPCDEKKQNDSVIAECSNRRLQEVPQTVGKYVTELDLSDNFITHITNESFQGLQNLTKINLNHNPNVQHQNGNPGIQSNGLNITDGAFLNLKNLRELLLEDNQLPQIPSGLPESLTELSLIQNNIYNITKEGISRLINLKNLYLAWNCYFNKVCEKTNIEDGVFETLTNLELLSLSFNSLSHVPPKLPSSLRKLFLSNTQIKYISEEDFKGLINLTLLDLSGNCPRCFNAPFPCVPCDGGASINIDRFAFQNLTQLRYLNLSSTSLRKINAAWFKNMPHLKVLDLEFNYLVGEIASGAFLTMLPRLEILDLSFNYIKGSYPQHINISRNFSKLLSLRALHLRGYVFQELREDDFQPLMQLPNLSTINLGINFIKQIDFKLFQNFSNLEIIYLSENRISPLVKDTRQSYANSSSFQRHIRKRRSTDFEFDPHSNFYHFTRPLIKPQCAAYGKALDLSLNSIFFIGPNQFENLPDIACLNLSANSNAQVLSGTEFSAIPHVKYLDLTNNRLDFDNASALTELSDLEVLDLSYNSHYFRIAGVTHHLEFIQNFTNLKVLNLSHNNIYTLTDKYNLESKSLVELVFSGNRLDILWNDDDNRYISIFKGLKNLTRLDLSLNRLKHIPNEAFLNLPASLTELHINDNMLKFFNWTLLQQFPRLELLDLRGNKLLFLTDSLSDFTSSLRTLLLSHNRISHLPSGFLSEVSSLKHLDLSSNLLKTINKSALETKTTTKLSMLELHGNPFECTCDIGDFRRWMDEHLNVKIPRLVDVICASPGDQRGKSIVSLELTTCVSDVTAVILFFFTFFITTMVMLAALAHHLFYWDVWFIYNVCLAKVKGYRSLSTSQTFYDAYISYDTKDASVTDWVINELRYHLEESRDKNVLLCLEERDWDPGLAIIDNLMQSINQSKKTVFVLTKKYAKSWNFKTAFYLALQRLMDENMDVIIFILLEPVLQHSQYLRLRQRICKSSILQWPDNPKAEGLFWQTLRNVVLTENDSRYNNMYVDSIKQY
The experiment is described as follows: TLR8 inhibition reporter assay (HEK-Blue cells, SEAP reporter, R848 stimulation). The settings on record: HEK-Blue cells overexpressing human TLR8, SEAP reporter, R848 15.9 μM. The procedure, abridged: as §1

The target of experiment [3] is T3, human TLR9 (Homo sapiens, UniProt Q9NR96).
T3 construct: host or cells: HEK-Blue cells (HEK293-derived reporter line)
T3 sequence (Q9NR96 26-1032): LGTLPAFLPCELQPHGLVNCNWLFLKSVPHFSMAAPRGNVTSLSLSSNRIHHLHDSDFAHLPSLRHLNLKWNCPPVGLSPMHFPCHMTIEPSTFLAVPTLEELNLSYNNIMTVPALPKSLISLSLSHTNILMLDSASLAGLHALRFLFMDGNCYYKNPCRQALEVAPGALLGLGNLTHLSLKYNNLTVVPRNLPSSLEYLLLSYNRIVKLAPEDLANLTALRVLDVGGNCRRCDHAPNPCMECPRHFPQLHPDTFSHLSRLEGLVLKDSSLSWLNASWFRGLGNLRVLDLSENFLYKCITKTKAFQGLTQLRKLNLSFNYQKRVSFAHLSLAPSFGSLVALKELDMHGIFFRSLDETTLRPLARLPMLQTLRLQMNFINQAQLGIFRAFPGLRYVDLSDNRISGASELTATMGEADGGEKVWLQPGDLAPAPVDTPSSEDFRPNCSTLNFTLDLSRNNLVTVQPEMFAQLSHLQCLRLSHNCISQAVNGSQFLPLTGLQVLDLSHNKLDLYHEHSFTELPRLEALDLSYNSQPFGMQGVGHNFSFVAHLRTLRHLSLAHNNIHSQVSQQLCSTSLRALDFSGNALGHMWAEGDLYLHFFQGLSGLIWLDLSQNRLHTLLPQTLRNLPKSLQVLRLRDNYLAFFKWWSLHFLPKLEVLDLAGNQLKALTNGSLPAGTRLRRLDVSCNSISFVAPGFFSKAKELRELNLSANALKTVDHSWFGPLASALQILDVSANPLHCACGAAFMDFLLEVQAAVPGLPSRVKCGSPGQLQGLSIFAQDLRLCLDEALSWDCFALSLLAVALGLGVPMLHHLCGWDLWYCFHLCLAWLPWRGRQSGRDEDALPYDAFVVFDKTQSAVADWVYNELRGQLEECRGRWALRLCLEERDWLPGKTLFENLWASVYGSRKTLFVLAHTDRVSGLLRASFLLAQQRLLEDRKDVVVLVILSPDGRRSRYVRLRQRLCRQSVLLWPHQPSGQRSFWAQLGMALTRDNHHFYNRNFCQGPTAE
The experiment is described as follows: TLR9 inhibition reporter assay (HEK-Blue cells, SEAP reporter, ODN2006 stimulation). The settings on record: HEK-Blue cells overexpressing human TLR9, SEAP reporter, ODN2006 5 nM. The procedure, abridged: as §1

Take `COc1cc(-c2[nH]c3ccc(C4CCN(CCS(C)(=O)=O)CC4)cc3c2C(C)C)cc2ncnn12` [Example 797, 7-(3-isopropyl-5-(1-(2-(methylsulfonyl)ethyl)piperidin-4-yl)-1H-indol-2-yl)-5-methoxy-[1,2,4]triazolo[1,5-a]pyridine]: the values for the IC50 in experiment [1], in experiment [2] and in experiment [3] were under 100 nM, under 100 nM and 1000 to 50000 nM, respectively.

Take `Cc1cc(-c2[nH]c3ccc(C4CCN(C(=O)CCN5CCC(F)(F)C5)CC4)cc3c2C(C)C)cn2nnnc12` [Example 626, 3-(3,3-difluoropyrrolidin-1-yl)-1-(4-(3-isopropyl-2-(8-methyltetrazolo[1,5-a]pyridin-6-yl)-1H-indol-5-yl)piperidin-1-yl)propan-1-one]: the IC50 in experiment [1] is under 100 nM; in experiment [2], 100 to 1000 nM; in experiment [3] it was over 50000 nM.

In the case of `Cc1ccc(-c2[nH]c3ccc(C4CCN(CC(=O)N(C)C)CC4)cc3c2C(C)C)c2ncnn12` [Example 385, 2-(4-(3-isopropyl-2-(5-methyl-[1,2,4]triazolo[1,5-a]pyridin-8-yl)-1H-indol-5-yl)piperidin-1-yl)-N,N-dimethylacetamide], the IC50 in experiment [1] is under 100 nM; in experiment [2] it was under 100 nM; in experiment [3], 1000 to 50000 nM.

Take `CNC(=O)CN1CCC(c2ccc3[nH]c(-c4cnc5nn(C)cc5c4)c(C(C)C)c3c2)CC1` [Example 368, 2-(4-(3-isopropyl-2-(2-methyl-2H-pyrazolo[3,4-b]pyridin-5-yl)-1H-indol-5-yl)piperidin-1-yl)-N-methylacetamide]: the IC50 is 1000 to 50000 nM in experiment [1], over 3130 nM in experiment [2] and 1000 to 50000 nM in experiment [3].

Turning to `CCc1c(-c2ccnc3[nH]ncc23)[nH]c2ccc(C3CCN(CC(N)=O)CC3)cc12` [Example 289, 2-(4-(3-ethyl-2-(1H-pyrazolo[3,4-b]pyridin-4-yl)-1H-indol-5-yl)piperidin-1-yl)acetamide], the IC50 in experiment [1] was under 100 nM; in experiment [2] it was under 100 nM; in experiment [3], 1000 to 50000 nM.

Turning to `Cc1nn2ccc(-c3[nH]c4ccc(C5CCNCC5)cc4c3C(C)C)cc2c1F` [Example 146, 3-fluoro-5-(3-isopropyl-5-(piperidin-4-yl)-1H-indol-2-yl)-2-methylpyrazolo[1,5-a]pyridine], the values for the IC50 in experiment [1], in experiment [2] and in experiment [3] were under 100 nM, 100 to 1000 nM and over 50000 nM, respectively.

For the compound `CC(C)c1c(-c2cnc3nn(C)cc3c2)[nH]c2ccc(C3CCN(C(=O)CN(C)C)CC3)cc12` [Example 505, 2-(dimethylamino)-1-(4-(3-isopropyl-2-(2-methyl-2H-pyrazolo[3,4-b]pyridin-5-yl)-1H-indol-5-yl)piperidin-1-yl)ethan-1-one], the IC50 in experiment [1] was 100 to 1000 nM; in experiment [2] it was over 3130 nM; in experiment [3], 1000 to 50000 nM.

As for `CNC(=O)c1cnn2c(C)cc(-c3[nH]c4ccc(C5CCNCC5)cc4c3C(C)C)cc12` [Example 274, 5-(3-isopropyl-5-(piperidin-4-yl)-1H-indol-2-yl)-N,7-dimethylpyrazolo[1,5-a]pyridine-3-carboxamide], the IC50 is 100 to 1000 nM in experiment [1], over 3130 nM in experiment [2] and 1000 to 50000 nM in experiment [3].

Take `Cc1cc(-c2[nH]c3ccc(C4CCN(CC#N)CC4)cc3c2C(C)C)cc2cnnn12` [Example 964, 2-(4-(3-isopropyl-2-(7-methyl-[1,2,3]triazolo[1,5-a]pyridin-5-yl)-1H-indol-5-yl)piperidin-1-yl)acetonitrile]: the half-maximal inhibitory concentration (IC50) is under 100 nM in experiment [1], under 100 nM in experiment [2] and 100 to 1000 nM in experiment [3].

Consider `CC(C)c1c(-c2ccnc3[nH]ncc23)[nH]c2ccc(C3CCN(Cc4ccc(N5CCN(C)CC5)cc4)CC3)cc12` [Example 919, 4-(3-isopropyl-5-(1-(4-(4-methylpiperazin-1-yl)benzyl)piperidin-4-yl)-1H-indol-2-yl)-1H-pyrazolo[3,4-b]pyridine], for which the values for the IC50 in experiment [1], in experiment [2] and in experiment [3] were under 100 nM, under 100 nM and 100 to 1000 nM, respectively.

`COc1c(C)c(-c2[nH]c3ccc(C4CCN(C5CCOCC5)CC4)cc3c2C(C)C)nn2ncnc12` [Example 685, 6-(3-isopropyl-5-(1-(tetrahydro-2H-pyran-4-yl)piperidin-4-yl)-1H-indol-2-yl)-8-methoxy-7-methyl-[1,2,4]triazolo[1,5-b]pyridazine]: the IC50 was under 100 nM in experiment [1], under 100 nM in experiment [2] and 1000 to 50000 nM in experiment [3].

For `CC(C)c1c(-c2ccc3nccn3c2)[nH]c2ccc(C3CCN(C4CCN(C(C)C)CC4)CC3)cc12` [Example 803, 6-(3-isopropyl-5-(1′-isopropyl-[1,4′-bipiperidin]-4-yl)-1H-indol-2-yl)imidazo[1,2-a]pyridine], the IC50 is under 100 nM in experiment [1], under 100 nM in experiment [2] and 100 to 1000 nM in experiment [3].

On to `CCc1c(-c2ccnc3[nH]ncc23)[nH]c2ccc(C3CCNCC3)cc12` [Example 229, 4-(3-ethyl-5-(piperidin-4-yl)-1H-indol-2-yl)-1H-pyrazolo[3,4-b]pyridine], for which the results for the IC50 in experiment [1], in experiment [2] and in experiment [3] were under 100 nM, under 100 nM and 100 to 1000 nM, respectively.
